This is an account of results in patent US8987195B2 (priority 2012, dated 2015).

pEC50, pIC50: −log10 of the molar value. Where two headings read alike, the source gives them in different places.

Assay [1] deals with HCV NS3/4A protease genotype 1b (Hepatitis C virus genotype 1b, UniProt P26663). In words: HCV NS3/4A protease time-resolved fluorescence (TRF) assay, Ki against genotype 1b. It counts as biochemical. To be noted: for IC50: IC50 [gt-1b] (nM), NS3/4A genotype 1b, enzyme 0.2 nM. In a few lines: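 Ki was converted from fitted IC50 using IC50=Ki(1+[S]/KM) and 25 nM substrate. Protease (genotype 1b 0.2 nM, A156T 0.4 nM, 3a 0.025 nM) and compound were pre-mixed 30 min in pH 7.5 HEPES/NaCl/glycerol/DTT buffer. Cleavage then proceeded 2.5 h at room temperature, detected by time-resolved europium fluorescence (340/615 nm).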

The subject of another assay is HCV genotype 1b replicon. Briefly: HCV replicon assay, genotype 1b replicon EC50. Type of assay: cell-based, Hepatitis C virus. To be noted: Hepatitis C virus, read-out: EC50 [gt-1b]. In a few lines:
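Potency comes from a four-parameter fit of signal as percent of DMSO control. Replicon-bearing cells were treated 24-48 hours with a compound dilution series in absence of G418, and replicon RNA was quantified normalized to cyclophilin A RNA, or luciferase read.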
Background: A replicon is a self-replicating genome or part of one, used to study replication in cells.

The pIC50 is the negative decadic logarithm of the IC50, by convention in mol/L. A higher pIC50 goes with a low IC50. For orientation: pEC50 means the negative decadic logarithm of the EC50, by convention in mol/L. In assay [1] (IC50 [gt-1b], NS3/4A protease TRF assay, genotype 1b enzyme 0.2 nM), `COCCOc1ccc2nc(C)c3c(c2c1)CC[C@]1(C[C@H]2C(=O)N[C@]4(C(=O)NS(=O)(=O)C5(C)CC5)C[C@H]4/C=C\CCCCC[C@H](NC(=O)OC(C)(C)C(F)(F)F)C(=O)N2C1)O3` [Example 430, 1,1,1-trifluoro-2-methylpropan-2-yl [(2R,6S,12Z,13aS,14aR,16aS)-9′-(2-methoxyethoxy)-5′-methyl-14a-{[(1-methylcyclopropyl)sulfonyl]carbamoyl}-5,16-dioxo-1,1′,2′,5,6,7,8,9,10,11,13a,14,14a,15,16,16a-hexadecahydrospiro[cyclopropa[e]pyrrolo[1,2-a][1,4]diazacyclopentadecine-2,3′-pyrano[2,3-c]quinolin]-6-yl]carbamate] showed a pIC50 of 10.59. In the assay with HCV genotype 1b replicon (HCV replicon, genotype 1b), the pEC50 is 8.30.
One may read the IC50 as the concentration needed to halve the response being measured. A lower IC50 goes with greater potency. `CC1(S(=O)(=O)NC(=O)[C@@]23C[C@H]2/C=C\CCCCC[C@H](NC(=O)OC2CCCC2)C(=O)N2C[C@@]4(CCc5c(c(C6CC6)nc6c(F)cccc56)O4)C[C@H]2C(=O)N3)CC1` [Example 150, cyclopentyl [(2R,6S,12Z,13aS,14aR,16aS)-5′-cyclopropyl-7′-fluoro-14a-{[(1-methylcyclopropyl)sulfonyl]carbamoyl}-5,16-dioxo-1,1′,2′,5,6,7,8,9,10,11,13a,14,14a,15,16,16a-hexadecahydrospiro[cyclopropa[e]pyrrolo[1,2-a][1,4]diazacyclopentadecine-2,3′-pyrano[2,3-c]quinolin]-6-yl]carbamate] displayed an IC50 in assay [1] of 0.013 nM. In addition, in the assay on HCV genotype 1b replicon (genotype 1b replicon), the pEC50 was 9.71.
In turn, `Cc1nc2ccccc2c2c1O[C@]1(CC2)C[C@H]2C(=O)N[C@]3(C(=O)NS(=O)(=O)C4(C)CC4)C[C@H]3/C=C\CCCCC[C@H](NC(=O)O[C@@H]3C[C@H]4CC[C@@H]3C4)C(=O)N2C1` [Example 179, (1R,2R,4S)-bicyclo[2.2.1]hept-2-yl [(2R,6S,12Z,13aS,14aR,16aS)-5′-methyl-14a-{[(1-methylcyclopropyl)sulfonyl]carbamoyl}-5,16-dioxo-1,1′,2′,5,6,7,8,9,10,11,13a,14,14a,15,16,16a-hexadecahydrospiro[cyclopropa[e]pyrrolo[1,2-a][1,4]diazacyclopentadecine-2,3′-pyrano[2,3-c]quinolin]-6-yl]carbamate] yielded an IC50 in assay [1] of 0.012 nM. Moreover, in the assay with HCV genotype 1b replicon (genotype 1b replicon), the pEC50 is 9.70.
The corresponding values for `COc1ccc2nc(C(F)(F)F)c3c(c2c1)CC[C@]1(C[C@H]2C(=O)N[C@]4(C(=O)NS(=O)(=O)C5(C)CC5)C[C@H]4/C=C\CCCCC[C@H](NC(=O)OC(C)(C)C)C(=O)N2C1)O3` [Example 5, tert-Butyl (2R,6S,13aS,14aR,16aS,Z)-9′-methoxy-14a-(1-methylcyclopropylsulfonylcarbamoyl)-5,16-dioxo-5′-(trifluoromethyl)-1′,2′,3,5,6,7,8,9,10,11,13a,14,14a,15,16, 16a-hexadecahydro-1H-spiro[cyclopropa[e]pyrrolo[1,2-a][1,4]diazacyclopentadecine-2,3′-pyrano[2,3-c]quinoline]-6-ylcarbamate] are 0.015 nM and 8.87.
The molecule `COc1ccc2nc(C)c3c(c2c1)[C@@H](F)C[C@]1(C[C@H]2C(=O)N[C@]4(C(=O)NS(=O)(=O)C5(C)CC5)C[C@H]4/C=C\CCCCC[C@H](NC(=O)OC(C)(C)C)C(=O)N2C1)O3` [Example 354, tert-butyl [(1′S,2S,6S,12Z,13aS,14aR,16aS)-1′-fluoro-9′-methoxy-5′-methyl-14a-{[(1-methylcyclopropyl)sulfonyl]carbamoyl}-5,16-dioxo-1,1′,2′,5,6,7,8,9,10,11,13a,14,14a,15,16,16a-hexadecahydrospiro[cyclopropa[e]pyrrolo[1,2-a][1,4]diazacyclopentadecine-2,3′-pyrano[2,3-c]quinolin]-6-yl]carbamate] showed an IC50 in assay [1] of 0.169 nM. Besides, the pEC50 in the assay with HCV genotype 1b replicon (genotype 1b replicon) was 6.99.
